The values that follow come from paper PMC7221793, “Metabolism and Pharmacokinetics of SP-8356, a Novel (1S)-(−)-Verbenone Derivative, in Rats and Dogs and Its Implications in Humans” (Molecules, 2020).

Read-outs that look alike come from different tables or passages of the source.

Series [1] can be described thus: Pharmacokinetic studies in dogs (single i.v. and p.o. dose). The class given is in vivo. To be noted: male, Beagle, dog, plasma, iv, 50 mg/kg. Here is the method: Separation was performed on a Phenomenex Kinetex C18 column (2.1 mm × 50 mm, 2.6 µm) with 0.1 vol.% formic acid in water (A) and 0.1 vol.% formic acid in acetonitrile (B) as the mobile phase. The samples were analyzed in a linear gradient elution at a flow rate of 0.45 mL/min at 40 °C: starting with 5 vol.% B for 2 min, ramping to 95 vol.% B in 1 min, maintaining for 3 min and then returning to the initial condition. The injection volume was 5 µL. Ion source parameters were optimized as follows: capillary voltage, 3500 V; drying gas, 12 L/min and 345 °C; nebulizer gas, 35 psi; sheath gas, 11 L/min and 400 °C. Mass spectra were acquired in negative multiple reaction monitoring (MRM) mode at m/z (299 > 283) (F, 100 V; CE, 25 eV) and (253 > 143) (F, 100 V; CE, 30 eV) for SP-8356 and HSDH, respectively. The data were analyzed using Agilent MassHunter Quantitative Analysis software (version B.05.00). The retention times of SP-8356 and HSDH were (4.10 and 4.17) min, respectively. The linear calibration range of SP-8356 was (31.25–4000) ng/mL (r^2 > 0.99). The precision and accuracy of the assay were evaluated using quality control samples prepared in triplicate at (30, 300 and 3000) ng/mL as described in previous report. Both the accuracy and precision of this analytical method were within the acceptable ranges. Pharmacokinetic parameters were calculated by noncompartmental analysis using PKSolver.
Animal studies were conducted at KNOTUS Co., Ltd. (IACUC Approval No.: KNOTUS IACUC 18-KE-363; Approval date: 24 October 2018). SP-8356 dissolved in DMSO/ethanol/Solutol HS 15/deionized water (5/3/40/52 vol.%) was dosed i.v. or p.o. at 50 mg/kg (n = 6/dose group) to male Beagle dogs (11 months old; (11.6–12.4) kg; OrientBio Inc., Gyeonggi, Republic of Korea). Blood samples were collected at selected time points for 24 h post-dosing through jugular vein cannula into EDTA-treated tubes containing AA (final concentration: 0.4 w/v%). The blood samples were then centrifuged at 3000 rpm at 4 °C for 20 min. The separated plasma samples were kept frozen at −80 °C, until analysis. Sample and data analysis methods were the same as those described in Section 4.2.

Series [2] in a line: Metabolic stability in human liver S9 fraction. Particulars: for t1/2 / half-life at 1 µM: 1 μM. It counts as in vitro ADME. Here is the method: The metabolic stability of SP-8356 was investigated using rat, dog and human liver S9 fractions fortified with cofactors for major drug metabolism. The final reaction mixture contained 1 mg/mL rat, dog or human liver S9 fraction, 1 mM cofactors (NADPH, UDPGA, PAPS, SAM and GSH), 2 mM MgCl2, 25 µg/mL alamethicin and 1 µM SP-8356 in final volume of 200 µL. The metabolic reactions were initiated by adding 10 mM cofactor solution to reaction mixtures preincubated for 5 min at 37 °C. The reactions were terminated at (0, 5, 15, 30 and 60) min by the addition of 200 µL ice-cold acetonitrile containing HSDH (1 µg/mL). The subsequent sample preparation and analytical methods were the same as those described in Section 4.5.
The degradation t1/2 of SP-8356 was calculated using the following Equation:(1) t1/2=0.693/k, where, k was the first-order rate constant calculated by one phase decay nonlinear regression using GraphPad Prism™ 7 (GraphPad Software, La Jolla, CA, USA). CLint was calculated using the following Equation:(2) CLint=k/fu,S9· mL incubation/mg liver S9· mg S9/g liver·g liver/kg body wt.
The scaling factors were (136, 120.7 and 120.7) mg S9 protein/g liver and (40, 32 and 26) g liver/kg body weight for rats, dogs and humans, respectively. For simplicity, the fraction unbound in S9 incubation (fu, S9) was assumed to be one. CLH was predicted using the hepatic well-stirred model, as follows:(3) CLH=QH·fu·CLint/QH+fu·CLint, where, QH was the hepatic blood flow of (55, 30 and 20) mL/min/kg for rats, dogs and humans, respectively. The fraction unbound (fu) was assumed to be one. EH was calculated using the following Equation:(4) EH=CLH/QH.

For series [3], the system named is mouse xenograft model of triple-negative breast cancer. Details: method as in PMID 31036845. Particulars: in mice ref 10; cited from earlier work.
Details of series [4]: method as in PMID 31036845. Particulars: mice, intraperitoneal administration ref 10; cited from earlier work.

As usually defined, the AUC(0-inf) is the area under the concentration-time curve extrapolated to infinity. Higher therefore signals more exposure. As usually defined, the AUC(0-t) is the area under the concentration-time curve up to a stated or last time point. A low value points to less exposure. As a reminder, the half-life is the time needed for the level to fall by half in the phase considered. As usually defined, the CLint scaled is the rate of metabolic loss divided by the concentration. Higher therefore signals faster metabolism. For `COc1cc(/C=C/C2=CC(=O)[C@H]3C[C@@H]2C3(C)C)cc(O)c1O` [SP-8356, (1S,5R)-4-((E)-3,4-dihydroxy-5-methoxystryryl)-6,6-dimethylbicylco[3.1.1]hept-3-en-2-one], the Vd is 1.3 ± 0.3 L/kg in series [1] (read-out: Vss) and 1.8 ± 0.3 L/kg in series [1] (read-out: Vz). This compound showed an AUC(0-inf) in series [1] of 12400 ng·h/mL. Further, the AUC(0-t) in series [1] was 12400 ng·h/mL. This compound had a clearance in series [1] of 66.7 mL/min/kg. For the same compound, the t1/2 was determined as 2.1 min in series [2] (human liver S9, +Cofactors (NADPH, UDPGA, PAPS, SAM, GSH)) and 24.1 min in series [2] (human liver S9, −Cofactors). Moreover, in series [2] (human, +Cofactors, predicted by well-stirred model), the CLH is reported as 19.6 mL/min/kg. The half-life at 1 µM in series [2] (human, liver S9 fraction, human liver S9, +Cofactors (NADPH, UDPGA, PAPS, SAM, GSH)) is less than 3 min; in series [2] (human, liver S9 fraction, human liver S9, −Cofactors), less than 30 min. The CLint scaled at 1 µM in series [2] (liver S9 fraction, human liver S9, +Cofactors) came to 1040 mL/min/kg. The anti-breast cancer activity entry in series [3] is listed as “potent anti-breast cancer effect”. Also, the plasma exposure entry in series [4] is “Low plasma exposure”.
